# US4576945A, “Hexaalkylmelamine-amino-oxy compounds” (priority 1984, dated 1986)
# Where two headings read alike, the source gives them in different places.
# Legend:
# [1] = Solubility in lipid and aqueous media; format: physicochemical
# A-498 renal carcinoma = experiment: Inhibition of colony formation by human tumor cell line A-498 (renal carcinoma), long-term exposure; format: cell-based; settings: 9 days
# Description: (§1) Cytotoxic activity of O-HMM against in vitro human tumor cells was measured as inhibition of colony formation and the results expressed as a ratio of the number of colonies in test dishes to number of control dishes, times 100 (Table 4).
# (§2) Inhibition of colony formation by human tumor
# (§3) ^a Percent survival as measured by the number of colonies in test
# A-204 rhabdomysarcoma = experiment: Inhibition of colony formation by human tumor cell line A-204 (rhabdomysarcoma), long-term exposure; format: cell-based; settings: 9 days
# Description: as §1, §2, §3
# rats = experiment: Acute toxic effects after intraperitoneal administration in rats; format: in vivo, Male Harlen-Sprague-Dawley rats; settings: rat; 20 mg/kg intraperitoneal
# Description: Male Harlen-Sprague-Dawley rats, 200-300 g were given 20 mg/kg of O-HMM by intraperitoneal injection (control rats received saline vehicle only) and their urine collected for two consecutive 24 hr. periods.
# [2] = test system: A-549 lung carcinoma, A-101D melanoma, A-498 renal carcinoma and A-204 rhabdomysarcoma; experiment: Comparison of O-HMM with HMM in the human tumor colony formation test systems; format: cell-based; settings: vs HMM; all four cell lines
# Description: as §1
# A-101D melanoma = experiment: Inhibition of colony formation by human tumor cell line A-101D (melanoma), long-term exposure; format: cell-based; settings: 9 days
# Description: as §1, §2, §3
# A-549 lung carcinoma = experiment: Inhibition of colony formation by human tumor cell line A-549 (lung carcinoma), long-term exposure; format: cell-based; settings: 9 days
# Description: as §1, §2, §3
# male BDF1 mice = experiment: Toxicity study (LD50 study) in mice; format: in vivo; settings: IP
# Description: These effects diminished over a period of about 3-5 hours until the animal appeared normal and resumed activity.
# [3] = Rearrangement of O-HMM to HDT (chemical stability); format: physicochemical; settings: for degraded at 4 h / degraded at 24 h / degraded at 26 h / degraded at 20 h: read-out: HDT (formed by rearrangement, determined by NMR); for remaining at 4 h / remaining at 24 h / remaining at 26 h / remaining at 20 h: read-out: HMM--NO (remaining, determined by NMR); for degraded at 24 h / remaining at 24 h: h2o; for degraded at 20 h / remaining at 20 h: 135° C. sealed tube
# Excerpt: Solvent Temp. Time HMM--NO HDT
# ^a Yields determined by NMR
# ^b Sealed tube reaction. Solutions degassed with argon and then seale
# ^d 0.1 equiv. mchlorobenzoic acid
# ^e 0.1 equiv. pnitrobenzoic acid
# ^f 0.05 M HOAc/NaOAc pH 5
# [4] = h2o/h+ (0.05 m hoac/naoac), pH 5, H2O/H+ (0.05 M HOAc/NaOAc pH 5), 25° C.
# [5] = h2o/h+ (0.05 m hoac/naoac), pH 5, H2O/H+ (0.05 M HOAc/NaOAc pH 5), 50° C.
# [6] = hccl3/h+ (m-chlorobenzoic acid), HCCl3/H+ (0.1 equiv. m-chlorobenzoic acid), 25° C.
# [7] = hccl3/h+ (m-chlorobenzoic acid), HCCl3/H+ (0.1 equiv. m-chlorobenzoic acid), 50° C.
# [8] = hccl3/h+ (m-chlorobenzoic acid), HCCl3/H+ (0.1 equiv. m-chlorobenzoic acid)
# [9] = hccl3/h+ (p-nitrobenzoic acid), HCCl3/H+ (0.1 equiv. p-nitrobenzoic acid), 50° C.
structure (smiles),measurement,setting,value
"CN(C)Oc1nc(N(C)C)nc(N(C)C)n1 [O-HMM, 2,4-bis(dimethylamino)-6-[(dimethylamino)oxy]-1,3,5-triazine]",solubility,"[1]; pentane, organic solvent or mixture, read-out: solubility in lipid medium (pentane)",29 mg/mL
same,solubility,"[1]; water, read-out: solubility in aqueous medium (water)",19 mg/mL
same,inhibition of colony formation,A-498 renal carcinoma; 200 μg/ml,Complete inhibition
same,viability at 10 µg/mL,"A-498 renal carcinoma; Homo sapiens, A498, 216 h, 10 ug/ml, read-out: Percent survival (number of colonies in test dishes to colonies in control dishes times 100)",93 ± 3%
same,viability at 20 µg/mL,"A-498 renal carcinoma; Homo sapiens, A498, 216 h, 20 ug/ml, read-out: Percent survival (number of colonies in test dishes to colonies in control dishes times 100)",83 ± 7%
same,viability at 40 µg/mL,"A-498 renal carcinoma; Homo sapiens, A498, 216 h, 40 ug/ml, read-out: Percent survival (number of colonies in test dishes to colonies in control dishes times 100)",67 ± 14%
same,viability at 60 µg/mL,"A-498 renal carcinoma; Homo sapiens, A498, 216 h, 60 ug/ml, read-out: Percent survival (number of colonies in test dishes to colonies in control dishes times 100)",44 ± 23%
same,viability at 80 µg/mL,"A-498 renal carcinoma; Homo sapiens, A498, 216 h, 80 ug/ml, read-out: Percent survival (number of colonies in test dishes to colonies in control dishes times 100)",24 ± 18%
same,viability at 100 µg/mL,"A-498 renal carcinoma; Homo sapiens, A498, 216 h, 100 ug/ml, read-out: Percent survival (number of colonies in test dishes to colonies in control dishes times 100)",14 ± 9%
same,viability at 120 µg/mL,"A-498 renal carcinoma; Homo sapiens, A498, 216 h, 120 ug/ml, read-out: Percent survival (number of colonies in test dishes to colonies in control dishes times 100)",5 ± 6%
same,viability at 200 µg/mL,"A-498 renal carcinoma; Homo sapiens, A498, 216 h, 200 ug/ml, read-out: Percent survival (number of colonies in test dishes to colonies in control dishes times 100)",0%
same,inhibition of colony formation,A-204 rhabdomysarcoma; 200 μg/ml,Complete inhibition
same,viability at 10 µg/mL,"A-204 rhabdomysarcoma; Homo sapiens, A204, 216 h, 10 ug/ml, read-out: Percent survival (number of colonies in test dishes to colonies in control dishes times 100)",99 ± 26%
same,viability at 20 µg/mL,"A-204 rhabdomysarcoma; Homo sapiens, A204, 216 h, 20 ug/ml, read-out: Percent survival (number of colonies in test dishes to colonies in control dishes times 100)",87 ± 13%
same,viability at 40 µg/mL,"A-204 rhabdomysarcoma; Homo sapiens, A204, 216 h, 40 ug/ml, read-out: Percent survival (number of colonies in test dishes to colonies in control dishes times 100)",76 ± 17%
same,viability at 60 µg/mL,"A-204 rhabdomysarcoma; Homo sapiens, A204, 216 h, 60 ug/ml, read-out: Percent survival (number of colonies in test dishes to colonies in control dishes times 100)",48 ± 21%
same,viability at 80 µg/mL,"A-204 rhabdomysarcoma; Homo sapiens, A204, 216 h, 80 ug/ml, read-out: Percent survival (number of colonies in test dishes to colonies in control dishes times 100)",20 ± 17%
same,viability at 100 µg/mL,"A-204 rhabdomysarcoma; Homo sapiens, A204, 216 h, 100 ug/ml, read-out: Percent survival (number of colonies in test dishes to colonies in control dishes times 100)",4 ± 4%
same,viability at 120 µg/mL,"A-204 rhabdomysarcoma; Homo sapiens, A204, 216 h, 120 ug/ml, read-out: Percent survival (number of colonies in test dishes to colonies in control dishes times 100)",1 ± 2%
same,viability at 200 µg/mL,"A-204 rhabdomysarcoma; Homo sapiens, A204, 216 h, 200 ug/ml, read-out: Percent survival (number of colonies in test dishes to colonies in control dishes times 100)",0%
same,acute toxic effects,rats,No acute toxic effects were observed
same,activity compared with HMM in the human tumor colony formation test systems,[2],consistently greater activity than HMM
same,inhibition of colony formation,A-101D melanoma; 200 μg/ml,Complete inhibition
same,viability at 10 µg/mL,"A-101D melanoma; Homo sapiens, A101D, 216 h, 10 ug/ml, read-out: Percent survival (number of colonies in test dishes to colonies in control dishes times 100)",95 ± 10%
same,viability at 20 µg/mL,"A-101D melanoma; Homo sapiens, A101D, 216 h, 20 ug/ml, read-out: Percent survival (number of colonies in test dishes to colonies in control dishes times 100)",82 ± 9%
same,viability at 40 µg/mL,"A-101D melanoma; Homo sapiens, A101D, 216 h, 40 ug/ml, read-out: Percent survival (number of colonies in test dishes to colonies in control dishes times 100)",50 ± 15%
same,viability at 60 µg/mL,"A-101D melanoma; Homo sapiens, A101D, 216 h, 60 ug/ml, read-out: Percent survival (number of colonies in test dishes to colonies in control dishes times 100)",17 ± 16%
same,viability at 80 µg/mL,"A-101D melanoma; Homo sapiens, A101D, 216 h, 80 ug/ml, read-out: Percent survival (number of colonies in test dishes to colonies in control dishes times 100)",1 ± 1%
same,viability at 100 µg/mL,"A-101D melanoma; Homo sapiens, A101D, 216 h, 100 ug/ml, read-out: Percent survival (number of colonies in test dishes to colonies in control dishes times 100)",0%
same,viability at 120 µg/mL,"A-101D melanoma; Homo sapiens, A101D, 216 h, 120 ug/ml, read-out: Percent survival (number of colonies in test dishes to colonies in control dishes times 100)",0%
same,viability at 200 µg/mL,"A-101D melanoma; Homo sapiens, A101D, 216 h, 200 ug/ml, read-out: Percent survival (number of colonies in test dishes to colonies in control dishes times 100)",0%
same,inhibition of colony formation,A-549 lung carcinoma; 200 μg/ml,Complete inhibition
same,viability at 10 µg/mL,"A-549 lung carcinoma; Homo sapiens, A549, 216 h, 10 ug/ml, read-out: Percent survival (number of colonies in test dishes to colonies in control dishes times 100)",91 ± 6%
same,viability at 20 µg/mL,"A-549 lung carcinoma; Homo sapiens, A549, 216 h, 20 ug/ml, read-out: Percent survival (number of colonies in test dishes to colonies in control dishes times 100)",94 ± 4%
same,viability at 40 µg/mL,"A-549 lung carcinoma; Homo sapiens, A549, 216 h, 40 ug/ml, read-out: Percent survival (number of colonies in test dishes to colonies in control dishes times 100)",69 ± 11%
same,viability at 60 µg/mL,"A-549 lung carcinoma; Homo sapiens, A549, 216 h, 60 ug/ml, read-out: Percent survival (number of colonies in test dishes to colonies in control dishes times 100)",9 ± 14%
same,viability at 80 µg/mL,"A-549 lung carcinoma; Homo sapiens, A549, 216 h, 80 ug/ml, read-out: Percent survival (number of colonies in test dishes to colonies in control dishes times 100)",0%
same,viability at 100 µg/mL,"A-549 lung carcinoma; Homo sapiens, A549, 216 h, 100 ug/ml, read-out: Percent survival (number of colonies in test dishes to colonies in control dishes times 100)",0%
same,viability at 120 µg/mL,"A-549 lung carcinoma; Homo sapiens, A549, 216 h, 120 ug/ml, read-out: Percent survival (number of colonies in test dishes to colonies in control dishes times 100)",0%
same,viability at 200 µg/mL,"A-549 lung carcinoma; Homo sapiens, A549, 216 h, 200 ug/ml, read-out: Percent survival (number of colonies in test dishes to colonies in control dishes times 100)",0%
same,onset of changes in the mouse's behavior after injection,male BDF1 mice,< 1 min
same,recovery of the fourth mouse,male BDF1 mice; 1000 mg/kg,recovering completely
same,time of recovery (dose dependence),male BDF1 mice; mouse,dose-dependent time of recovery
same,time until effects diminished and animal appeared normal,male BDF1 mice; mouse,3 to 5 h
same,time to death,"male BDF1 mice; mouse, 1000 mg/kg",≤ 3 min
same,deaths,"male BDF1 mice; mouse, 1000 mg/kg, 4 mice",3 of the 4
same,"long-term effects (weight loss, hair loss, death rate vs control animals)","male BDF1 mice; mouse, 60- and 120-day observation",no long-term effects
same,recovery of the remaining mice in the other groups,"male BDF1 mice; mouse, 500, 250, 100, 50 and 25 mg/kg",recovered completely in a few hours
same,toxic phenomenon (flaccid paralysis),"male BDF1 mice; mouse, 1000-25 mg/kg",dose dependent toxic phenomenon showing a decreasing degree of a flaccid paralysis with decreasing dose
same,absorption,"male BDF1 mice; mouse, inferred from rapid onset of toxic effect",very rapid absorption
same,degraded at 4 h,"[3]; h2o/h+ (0.01 m hcl), 25° C.",100%
same,remaining at 4 h,"[3]; h2o/h+ (0.01 m hcl), 25° C.",0%
same,degraded at 4 h,[3]; [4],79%
same,remaining at 4 h,[3]; [4],21%
same,degraded at 4 h,[3]; [5],100%
same,remaining at 4 h,[3]; [5],0%
same,degraded at 24 h,[3]; 25° C.,0%
same,remaining at 24 h,[3]; 25° C.,100%
same,degraded at 24 h,[3]; 50° C.,9%
same,remaining at 24 h,[3]; 50° C.,91%
same,degraded at 26 h,"[3]; hccl3, HCCl3, 25° C.",3%
same,remaining at 26 h,"[3]; hccl3, HCCl3, 25° C.",97%
same,degraded at 26 h,"[3]; hccl3, HCCl3, 50° C.",37%
same,remaining at 26 h,"[3]; hccl3, HCCl3, 50° C.",63%
same,degraded at 20 h,"[3]; hccl3, HCCl3",100%
same,remaining at 20 h,"[3]; hccl3, HCCl3",0%
same,degraded at 26 h,[3]; [6],66%
same,remaining at 26 h,[3]; [6],34%
same,degraded at 26 h,[3]; [7],97%
same,remaining at 26 h,[3]; [7],3%
same,degraded at 20 h,[3]; [8],100%
same,remaining at 20 h,[3]; [8],0%
same,degraded at 26 h,[3]; [9],100%
same,remaining at 26 h,[3]; [9],0%
same,degraded at 20 h,[3]; pentane,100%
same,remaining at 20 h,[3]; pentane,0%
